Measured values published in PubChem BioAssay (NCI).
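Method: 48-hour compound exposure of cells in 96-well plates, five concentrations, linear interpolation of endpoints. Definition used: TGI = concentration required for complete inhibition of growth.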

Tests used:
Assay in all cases: inhibition of tumour cell growth, NCI panel, 48 h
[1] = system: 786-0 renal
[2] = system: A498 renal
[3] = system: A549 NSCLC
[4] = system: ACHN renal
[5] = system: BT-549 breast
[6] = system: CAKI-1 renal
[7] = system: CCRF-CEM leukemia
[8] = system: COLO 205 colon
[9] = system: DU-145 prostate
[10] = system: EKVX NSCLC
[11] = system: HCC-2998 colon
[12] = system: HCT-116 colon
[13] = system: HCT-15 colon
[14] = system: HL-60(TB) leukemia
[15] = system: HOP-62 NSCLC
[16] = system: HOP-92 NSCLC
[17] = system: HS 578T breast
[18] = system: HT29 colon
[19] = system: IGROV1 ovarian
[20] = system: K-562 leukemia
[21] = system: KM12 colon
[22] = system: LOX IMVI melanoma
[23] = system: M14 melanoma
[24] = system: MALME-3M melanoma
[25] = system: MCF7 breast
[26] = system: MDA-MB-231 breast
[27] = system: MDA-MB-435
[28] = system: MDA-N
[29] = system: MOLT-4 leukemia
[30] = system: NCI-H23 lung
[31] = system: NCI-H460 lung
[32] = system: NCI-H522 lung
[33] = system: NCI/ADR-RES ovarian
[34] = system: OVCAR-3 ovarian
[35] = system: OVCAR-4 ovarian
[36] = system: OVCAR-5 ovarian
[37] = system: OVCAR-8 ovarian
[38] = system: PC-3 prostate
[39] = system: RPMI-8226 leukemia
[40] = system: RXF 393 renal
[41] = system: SF-268 CNS
[42] = system: SF-295 CNS
[43] = system: SF-539 CNS
[44] = system: SK-MEL-2 melanoma
[45] = system: SK-MEL-28 melanoma
[46] = system: SK-MEL-5 melanoma
[47] = system: SK-OV-3 ovarian
[48] = system: SN12C renal
[49] = system: SNB-19 CNS
[50] = system: SR leukemia
[51] = system: SW-620 colon
[52] = system: T-47D breast
[53] = system: TK-10 renal
[54] = system: U251 CNS
[55] = system: UACC-257 melanoma
[56] = system: UACC-62 melanoma
[57] = system: NCI-H226 lung
[58] = system: SNB-75 CNS
[59] = system: UO-31 renal

CCC(C)C(NC(=O)C(CCCCN)NC(=O)C(NC(=O)C(CCC(N)=O)NC(=O)C(CCCNC(=N)N)NC(C)=O)C(C)CC)C(=O)NC(Cc1c[nH]c2ccccc12)C(=O)NC(Cc1ccccc1)C(=O)NC(CCC(N)=O)C(=O)NC(CC(N)=O)C(=O)NC(CCCNC(=N)N)C(=O)NC(CCCNC(=N)N)C(=O)NC(CCSC)C(=O)NC(CCCCN)C(=O)NC(Cc1c[nH]c2ccccc12)C(=O)NC(CCCCN)C(=O)NC(CCCCN)C(N)=O (stereo not given)
TGI [1]: 42.1 µM | TGI [2]: > 50 µM | TGI [3]: > 50 µM | TGI [4]: > 50 µM | TGI [5]: > 50 µM | TGI [6]: > 50 µM | TGI [7]: > 50 µM | TGI [8]: > 50 µM | TGI [9]: > 50 µM | TGI [10]: > 50 µM | TGI [11]: > 50 µM | TGI [12]: > 50 µM | TGI [13]: > 50 µM | TGI [14]: > 50 µM | TGI [15]: > 50 µM | TGI [16]: > 50 µM | TGI [17]: > 50 µM | TGI [18]: > 50 µM | TGI [19]: > 50 µM | TGI [20]: > 50 µM | TGI [21]: > 50 µM | TGI [22]: > 50 µM | TGI [23]: > 50 µM | TGI [24]: > 50 µM | TGI [25]: > 50 µM | TGI [26]: 41.3 µM | TGI [27]: > 50 µM | TGI [28]: > 50 µM | TGI [29]: > 50 µM | TGI [30]: > 50 µM | TGI [31]: > 50 µM | TGI [32]: > 50 µM | TGI [33]: > 50 µM | TGI [34]: > 50 µM | TGI [35]: > 50 µM | TGI [36]: 22.5 µM | TGI [37]: > 50 µM | TGI [38]: > 50 µM | TGI [39]: > 50 µM | TGI [40]: > 50 µM | TGI [41]: > 50 µM | TGI [42]: > 50 µM | TGI [43]: > 50 µM | TGI [44]: > 50 µM | TGI [45]: > 50 µM | TGI [46]: > 50 µM | TGI [47]: > 50 µM | TGI [48]: > 50 µM | TGI [49]: > 50 µM | TGI [50]: > 50 µM | TGI [51]: > 50 µM | TGI [52]: > 50 µM | TGI [53]: > 50 µM | TGI [54]: > 50 µM | TGI [55]: > 50 µM | TGI [56]: > 50 µM

Nc1ccn(C2OC(COP(=O)(O)O)C(O)C2O)c(=O)n1 (stereo not given)
TGI [1]: > 100 µM | TGI [2]: > 100 µM | TGI [3]: > 100 µM | TGI [4]: > 41.4 µM | TGI [5]: > 100 µM | TGI [6]: > 100 µM | TGI [7]: 0.0742 µM | TGI [8]: > 100 µM | TGI [9]: > 25.2 µM | TGI [10]: > 100 µM | TGI [11]: > 100 µM | TGI [12]: > 100 µM | TGI [13]: > 100 µM | TGI [14]: 6.48 µM | TGI [15]: > 100 µM | TGI [16]: > 100 µM | TGI [17]: > 100 µM | TGI [18]: > 100 µM | TGI [19]: > 100 µM | TGI [20]: > 100 µM | TGI [21]: > 100 µM | TGI [22]: > 100 µM | TGI [23]: > 44.9 µM | TGI [24]: > 100 µM | TGI [25]: > 100 µM | TGI [26]: > 100 µM | TGI [27]: > 100 µM | TGI [28]: > 100 µM | TGI [29]: 13.2 µM | TGI [57]: > 100 µM | TGI [30]: > 100 µM | TGI [31]: > 27.8 µM | TGI [32]: > 100 µM | TGI [33]: > 100 µM | TGI [34]: > 100 µM | TGI [35]: > 100 µM | TGI [36]: > 100 µM | TGI [37]: > 100 µM | TGI [38]: > 100 µM | TGI [39]: > 100 µM | TGI [40]: > 94.7 µM | TGI [41]: > 100 µM | TGI [42]: > 100 µM | TGI [43]: > 30.2 µM | TGI [44]: > 100 µM | TGI [45]: > 100 µM | TGI [46]: > 100 µM | TGI [47]: > 100 µM | TGI [48]: > 100 µM | TGI [49]: > 100 µM | TGI [58]: > 100 µM | TGI [50]: > 44.7 µM | TGI [51]: > 100 µM | TGI [52]: > 100 µM | TGI [53]: > 100 µM | TGI [54]: > 100 µM | TGI [55]: > 100 µM | TGI [56]: > 71.3 µM | TGI [59]: > 100 µM

Cc1c(Cl)c(=O)oc2cc(OCC(=O)c3ccccc3)ccc12
TGI [2]: > 100 µM | TGI [3]: > 100 µM | TGI [4]: > 100 µM | TGI [5]: > 100 µM | TGI [6]: > 100 µM | TGI [7]: > 100 µM | TGI [8]: > 100 µM | TGI [9]: > 100 µM | TGI [10]: > 100 µM | TGI [11]: > 100 µM | TGI [13]: > 100 µM | TGI [14]: > 100 µM | TGI [15]: 67.8 µM | TGI [16]: > 100 µM | TGI [17]: > 100 µM | TGI [18]: > 100 µM | TGI [19]: > 100 µM | TGI [20]: > 100 µM | TGI [21]: > 100 µM | TGI [23]: > 100 µM | TGI [24]: > 100 µM | TGI [25]: > 100 µM | TGI [26]: 75.4 µM | TGI [27]: > 100 µM | TGI [28]: > 100 µM | TGI [29]: > 100 µM | TGI [57]: > 100 µM | TGI [30]: > 100 µM | TGI [31]: > 100 µM | TGI [32]: > 100 µM | TGI [33]: > 100 µM | TGI [34]: > 100 µM | TGI [35]: > 100 µM | TGI [36]: > 100 µM | TGI [37]: > 100 µM | TGI [38]: > 100 µM | TGI [40]: > 100 µM | TGI [41]: > 100 µM | TGI [42]: > 100 µM | TGI [43]: > 100 µM | TGI [44]: > 100 µM | TGI [45]: > 100 µM | TGI [46]: > 100 µM | TGI [47]: > 100 µM | TGI [48]: > 100 µM | TGI [49]: > 100 µM | TGI [50]: 10.7 µM | TGI [51]: > 100 µM | TGI [52]: > 100 µM | TGI [53]: > 100 µM | TGI [54]: > 100 µM | TGI [55]: > 100 µM | TGI [56]: > 100 µM | TGI [59]: > 100 µM

Cc1nc(Cl)c(C)c(Cl)n1
TGI [1]: > 100 µM | TGI [2]: > 100 µM | TGI [3]: > 100 µM | TGI [4]: > 100 µM | TGI [5]: > 100 µM | TGI [6]: 0.0695 µM | TGI [7]: > 100 µM | TGI [8]: > 100 µM | TGI [9]: > 100 µM | TGI [10]: > 50.9 µM | TGI [11]: > 100 µM | TGI [12]: > 100 µM | TGI [13]: > 100 µM | TGI [14]: > 68.4 µM | TGI [15]: > 100 µM | TGI [17]: > 100 µM | TGI [18]: > 100 µM | TGI [19]: 34.5 µM | TGI [20]: > 91.9 µM | TGI [21]: > 100 µM | TGI [22]: > 100 µM | TGI [23]: > 100 µM | TGI [24]: > 100 µM | TGI [25]: > 100 µM | TGI [26]: > 100 µM | TGI [27]: > 100 µM | TGI [28]: > 100 µM | TGI [29]: > 100 µM | TGI [57]: > 100 µM | TGI [30]: > 100 µM | TGI [31]: > 100 µM | TGI [33]: > 100 µM | TGI [34]: > 100 µM | TGI [35]: > 100 µM | TGI [36]: > 100 µM | TGI [37]: > 100 µM | TGI [38]: > 100 µM | TGI [39]: > 100 µM | TGI [40]: > 100 µM | TGI [41]: > 100 µM | TGI [42]: > 100 µM | TGI [43]: > 100 µM | TGI [44]: > 100 µM | TGI [45]: > 100 µM | TGI [46]: > 100 µM | TGI [47]: > 100 µM | TGI [48]: > 100 µM | TGI [49]: > 100 µM | TGI [58]: > 100 µM | TGI [50]: 71.8 µM | TGI [51]: > 100 µM | TGI [52]: > 100 µM | TGI [53]: > 100 µM | TGI [54]: > 100 µM | TGI [55]: > 100 µM | TGI [56]: > 100 µM
